In the supplement of paper PMC10307832 one finds relative viability data, which are given here for five cell lines.

Test in all cases: relative viability (nuclei count vs DMSO), 5 days (fraction); higher = more cells survive
Compound in the experiment “TPCA-1 + Dasatinib”: C1=CC(=CC=C1C2=CC(=C(S2)NC(=O)N)C(=O)N)F [TPCA-1] + Cc1nc(Nc2ncc(C(=O)Nc3c(C)cccc3Cl)s2)cc(N2CCN(CCO)CC2)n1 [Dasatinib] (partner 0.075 µM)
In a few lines:
(§1)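 Lung cancer cell lines, seeded in 1536-well plates, were treated the following day by pin tool with a single drug or with five library-drug doses (not always all listed) in √10 steps on top of a fixed anchor-drug dose. Cells were fixed and nuclei stained in one step after 5 days, and nuclei were counted. Relative viability is the nuclei count for treated wells divided by that for vehicle wells, reported as medians of duplicate plates.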

Compound in the experiment “TPCA-1 + Phenformin”: C1=CC(=CC=C1C2=CC(=C(S2)NC(=O)N)C(=O)N)F [TPCA-1] + N=C(N)NC(=N)NCCc1ccccc1 [Phenformin] (partner 250 µM)
An outline of the steps:
as §1

Compound in the experiment “TPCA-1 + AZD7762”: C1=CC(=CC=C1C2=CC(=C(S2)NC(=O)N)C(=O)N)F [TPCA-1] + NC(=O)Nc1cc(-c2cccc(F)c2)sc1C(=O)N[C@H]1CCCNC1 [AZD7762] (partner 0.2 µM)
In a few lines:
as §1

Compound in experiment [1]: C[C@]12O[C@H](C[C@]1(O)CO)n1c3ccccc3c3c4c(c5c6ccccc6n2c5c31)CNC4=O [Lestaurtinib] + Nc1ncn([C@H]2C[C@H](O)[C@@H](CO)O2)c(=O)n1 [Decitabine] (partner 2 µM)
In a few lines:
as §1

NCI-H3122: the relative viability turned out to be 1.01 with TPCA-1 + Dasatinib (first compound 0.04 µM); 0.828 with TPCA-1 + Dasatinib (first compound 0.1265 µM); 0.866 with TPCA-1 + Dasatinib (first compound 0.4 µM); 0.851 with TPCA-1 + Dasatinib (first compound 1.265 µM); 0.517 in the experiment with TPCA-1 + Dasatinib (first compound 4 µM); 0.383 with TPCA-1 + Phenformin (first compound 0.04 µM). Also, the relative viability in the experiment with TPCA-1 + Phenformin (first compound 0.1265 µM) came to 0.401; in the experiment with TPCA-1 + Phenformin (first compound 0.4 µM), 0.409; in the experiment with TPCA-1 + Phenformin (first compound 1.265 µM) it was 0.374; in the experiment with TPCA-1 + Phenformin (first compound 4 µM), 0.404; in the experiment with TPCA-1 + AZD7762 (first compound 0.04 µM), 1.1; with TPCA-1 + AZD7762 (first compound 0.1265 µM) it was 0.97. Further, the relative viability was found to be 1.04 with TPCA-1 + AZD7762 (first compound 0.4 µM); 0.941 with TPCA-1 + AZD7762 (first compound 1.265 µM); 0.957 with TPCA-1 + AZD7762 (first compound 4 µM); 0.47 in experiment [1] (first compound 0.005 µM); 0.582 in experiment [1] (first compound 0.01581 µM); 0.465 in experiment [1] (first compound 0.05 µM). Moreover, the relative viability in experiment [1] (first compound 0.1581 µM) stood at 0.453; in experiment [1] (first compound 0.5 µM), 0.424.

In the case of PC-3 [JPC-3], the relative viability with TPCA-1 + Dasatinib (first compound 0.04 µM) stood at 0.959; in the experiment with TPCA-1 + Dasatinib (first compound 0.1265 µM), 0.99; with TPCA-1 + Dasatinib (first compound 0.4 µM) it was 1.04; with TPCA-1 + Dasatinib (first compound 1.265 µM) it was 0.943; with TPCA-1 + Dasatinib (first compound 4 µM) it was 0.999; in the experiment with TPCA-1 + Phenformin (first compound 0.04 µM), 0.461. For the same cell line, the relative viability came out at 0.461 in the experiment with TPCA-1 + Phenformin (first compound 0.1265 µM); 0.484 in the experiment with TPCA-1 + Phenformin (first compound 0.4 µM); 0.486 with TPCA-1 + Phenformin (first compound 1.265 µM); 0.468 with TPCA-1 + Phenformin (first compound 4 µM); 0.844 with TPCA-1 + AZD7762 (first compound 0.04 µM); 0.802 with TPCA-1 + AZD7762 (first compound 0.1265 µM). In addition, the relative viability with TPCA-1 + AZD7762 (first compound 0.4 µM) came to 0.85; with TPCA-1 + AZD7762 (first compound 1.265 µM), 0.823; with TPCA-1 + AZD7762 (first compound 4 µM) it was 0.655; in experiment [1] (first compound 0.005 µM), 0.814; in experiment [1] (first compound 0.01581 µM), 0.829; in experiment [1] (first compound 0.05 µM), 0.915. For the same cell line, the relative viability amounted to 0.816 in experiment [1] (first compound 0.1581 µM) and 0.733 in experiment [1] (first compound 0.5 µM).

In the case of PC-14, the relative viability was 0.324 with TPCA-1 + Dasatinib (first compound 0.04 µM); 0.245 with TPCA-1 + Dasatinib (first compound 0.1265 µM); 0.283 with TPCA-1 + Dasatinib (first compound 0.4 µM); 0.144 in the experiment with TPCA-1 + Dasatinib (first compound 1.265 µM); 0.0724 with TPCA-1 + Dasatinib (first compound 4 µM); 0.575 with TPCA-1 + Phenformin (first compound 0.04 µM). The relative viability in the experiment with TPCA-1 + Phenformin (first compound 0.1265 µM) is 0.492; with TPCA-1 + Phenformin (first compound 0.4 µM), 0.717; in the experiment with TPCA-1 + Phenformin (first compound 1.265 µM), 0.508; in the experiment with TPCA-1 + Phenformin (first compound 4 µM), 0.568; with TPCA-1 + AZD7762 (first compound 0.04 µM) it was 0.471; in the experiment with TPCA-1 + AZD7762 (first compound 0.1265 µM) it was 0.305. The relative viability in the experiment with TPCA-1 + AZD7762 (first compound 0.4 µM) stood at 0.374; in the experiment with TPCA-1 + AZD7762 (first compound 1.265 µM), 0.696; with TPCA-1 + AZD7762 (first compound 4 µM), 0.43; in experiment [1] (first compound 0.005 µM) it was 0.244; in experiment [1] (first compound 0.01581 µM), 0.223; in experiment [1] (first compound 0.05 µM), 0.237. Besides, the relative viability in experiment [1] (first compound 0.1581 µM) was determined as 0.207; in experiment [1] (first compound 0.5 µM), 0.0672.

On to RERF-LC-KJ, for which the relative viability in the experiment with TPCA-1 + Dasatinib (first compound 0.04 µM) was determined as 0.988; with TPCA-1 + Dasatinib (first compound 0.1265 µM) it was 0.668; with TPCA-1 + Dasatinib (first compound 0.4 µM), 0.76; with TPCA-1 + Dasatinib (first compound 1.265 µM), 0.591; with TPCA-1 + Dasatinib (first compound 4 µM) it was 0.508; with TPCA-1 + Phenformin (first compound 0.04 µM), 0.425. In addition, the relative viability was determined as 0.393 with TPCA-1 + Phenformin (first compound 0.1265 µM); 0.424 in the experiment with TPCA-1 + Phenformin (first compound 0.4 µM); 0.408 with TPCA-1 + Phenformin (first compound 1.265 µM); 0.37 with TPCA-1 + Phenformin (first compound 4 µM); 1.03 in the experiment with TPCA-1 + AZD7762 (first compound 0.04 µM); 0.844 with TPCA-1 + AZD7762 (first compound 0.1265 µM). Also, the relative viability with TPCA-1 + AZD7762 (first compound 0.4 µM) came out at 0.914; with TPCA-1 + AZD7762 (first compound 1.265 µM), 0.739; with TPCA-1 + AZD7762 (first compound 4 µM), 0.652; in experiment [1] (first compound 0.005 µM), 0.869; in experiment [1] (first compound 0.01581 µM), 0.791; in experiment [1] (first compound 0.05 µM), 0.563. For the same cell line, the relative viability in experiment [1] (first compound 0.1581 µM) turned out to be 0.562; in experiment [1] (first compound 0.5 µM), 0.241.

For SW 900, the relative viability with TPCA-1 + Dasatinib (first compound 0.04 µM) came to 0.768; with TPCA-1 + Dasatinib (first compound 0.1265 µM), 0.526; in the experiment with TPCA-1 + Dasatinib (first compound 0.4 µM), 0.685; in the experiment with TPCA-1 + Dasatinib (first compound 1.265 µM), 0.307; in the experiment with TPCA-1 + Dasatinib (first compound 4 µM) it was 0.583; in the experiment with TPCA-1 + Phenformin (first compound 0.04 µM) it was 0.79. The relative viability stood at 0.577 with TPCA-1 + Phenformin (first compound 0.1265 µM); 0.518 in the experiment with TPCA-1 + Phenformin (first compound 0.4 µM); 0.395 in the experiment with TPCA-1 + Phenformin (first compound 1.265 µM); 0.529 with TPCA-1 + Phenformin (first compound 4 µM); 0.685 with TPCA-1 + AZD7762 (first compound 0.4 µM); 0.631 with TPCA-1 + AZD7762 (first compound 1.265 µM). The relative viability was found to be 0.586 with TPCA-1 + AZD7762 (first compound 4 µM); 0.405 in experiment [1] (first compound 0.005 µM); 0.372 in experiment [1] (first compound 0.01581 µM); 0.451 in experiment [1] (first compound 0.05 µM); 0.624 in experiment [1] (first compound 0.1581 µM); 0.541 in experiment [1] (first compound 0.5 µM).
